Results reported in patent US20020137929A1, “1 - (3-heterocyclylphenyl) isothiourea, -isourea, -guanidine and -amidine herbicidal agents” (Intellectual Property Department, BASF Aktiengesellschaft, priority 1998, published 2002).

How the values were obtained:
ORYSAT (Rice, Tebonnet) = test: Postemergence herbicidal evaluation; type: in vivo, Oryza sativa, (L.) Tebonnet; settings: postemergence
How it was run: (§1)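 Two-week-old seedlings sprayed with compound in 50/50 acetone/water plus 0.5% TWEEN 20, at about 0.0156 to 0.500 kg/ha, nozzle at 40 psi. Kept in greenhouse; rated visually 4-5 weeks after treatment on a 0-9 scale versus control, repeat tests averaged.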

[1] = system: IPOHE (Morningglory, Ivyleaf); test: Preemergence herbicidal evaluation; type: in vivo, Ipomoea hederacea; settings: rated 4-5 weeks after treatment, rating scale 0-9
How it was run: (§2)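 Each species is sown separately in potting soil over roughly an inch of soil before any emergence. The soil surface then receives an aqueous acetone spray delivering about 0.0156 to 0.500 kg/ha of compound. After four to five weeks, injury is scored from 0 to 9 relative to a control.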

CASOB (Sicklepod) = test: Preemergence herbicidal evaluation; type: in vivo, Cassia obtusifolia; settings: rated 4-5 weeks after treatment, rating scale 0-9
How it was run: as §2

[2] = system: CHEAL (Lambsquarters, Common); test: Preemergence herbicidal evaluation; type: in vivo, Chenopodium album; settings: rated 4-5 weeks after treatment, rating scale 0-9
How it was run: as §2

[3] = system: TRZAWR (Wheat, Winter, cv Riband); test: Preemergence herbicidal evaluation; type: in vivo, Triticum aestivum; settings: rated 4-5 weeks after treatment, rating scale 0-9
How it was run: as §2

ZEAMX (Corn, Field) [4] = test: Preemergence herbicidal evaluation; type: in vivo, Zea mays; settings: rated 4-5 weeks after treatment, rating scale 0-9
How it was run: as §2

ZEAMX (Corn, Field) [5] = test: Postemergence herbicidal evaluation; type: in vivo, Zea mays; settings: postemergence
How it was run: as §1

SETVI (Foxtail, Green) = test: Postemergence herbicidal evaluation; type: in vivo, Setaria viridis; settings: postemergence
How it was run: as §1

ECHCG (Barnyardgrass) [6] = test: Postemergence herbicidal evaluation; type: in vivo, Echinochloa crus-galli; settings: postemergence
How it was run: as §1

[7] = system: GLXMAW (Soybean, Williams); test: Preemergence herbicidal evaluation; type: in vivo, Glycine max, (L.) Merr. cv Williams; settings: rated 4-5 weeks after treatment, rating scale 0-9
How it was run: as §2

[8] = system: IPOHE (Morningglory, Ivyleaf); test: Postemergence herbicidal evaluation; type: in vivo, Ipomoea hederacea; settings: postemergence
How it was run: as §1

[9] = system: CHEAL (Lambsquarters, Common); test: Postemergence herbicidal evaluation; type: in vivo, Chenopodium album; settings: postemergence
How it was run: as §1

ABUTH (Velvetleaf) [10] = test: Postemergence herbicidal evaluation; type: in vivo, Abutilon theophrasti; settings: postemergence
How it was run: as §1

ABUTH (Velvetleaf) [11] = test: Preemergence herbicidal evaluation; type: in vivo, Abutilon theophrasti; settings: rated 4-5 weeks after treatment, rating scale 0-9
How it was run: as §2

ECHCG (Barnyardgrass) [12] = test: Preemergence herbicidal evaluation; type: in vivo, Echinochloa crus-galli; settings: rated 4-5 weeks after treatment, rating scale 0-9
How it was run: as §2

Cn1c(C(F)(F)F)cc(=O)n(-c2cc(N=C3SCC(=O)N3Cc3ccc(Cl)c(Cl)c3)c(Cl)cc2F)c1=O [Compound 144, 3-{4-Chloro-5-{[3-(3,4-dichlorobenzyl)-4-oxo-2-thiazolidinylidene]amino}-2-fluorophenyl}-1-methyl-6-(trifluoromethyl)-2,4(1H,3H)-pyrimidinedione]
Herbicidal rating ORYSAT (ORYSAT (Rice, Tebonnet); rate 0.0156 kg/ha): 2.5 | Herbicidal rating ORYSAT (ORYSAT (Rice, Tebonnet); rate 0.0313 kg/ha): 2.5 | Herbicidal rating ORYSAT (ORYSAT (Rice, Tebonnet); rate 0.0625 kg/ha): 3.0 | Preemergence herbicidal rating IPOHE ([1]; rate 0.0156 kg/ha): 0.0 | Preemergence herbicidal rating IPOHE ([1]; rate 0.0313 kg/ha): 0.0 | Preemergence herbicidal rating IPOHE ([1]; rate 0.0625 kg/ha): 0.0 | Preemergence herbicidal rating IPOHE ([1]; rate 0.1250 kg/ha): 0.0 | Preemergence herbicidal rating IPOHE ([1]; rate 0.2500 kg/ha): 1.0 | Preemergence herbicidal rating CASOB (CASOB (Sicklepod); rate 0.0156 kg/ha): 0.0 | Preemergence herbicidal rating CASOB (CASOB (Sicklepod); rate 0.0313 kg/ha): 0.0 | Preemergence herbicidal rating CASOB (CASOB (Sicklepod); rate 0.0625 kg/ha): 0.0 | Preemergence herbicidal rating CASOB (CASOB (Sicklepod); rate 0.1250 kg/ha): 1.0 | Preemergence herbicidal rating CASOB (CASOB (Sicklepod); rate 0.2500 kg/ha): 2.0 | Preemergence herbicidal rating CHEAL ([2]; rate 0.0156 kg/ha): 6.0 | Preemergence herbicidal rating CHEAL ([2]; rate 0.0313 kg/ha): 7.0 | Preemergence herbicidal rating CHEAL ([2]; rate 0.0625 kg/ha): 9.0 | Preemergence herbicidal rating CHEAL ([2]; rate 0.1250 kg/ha): 9.0 | Preemergence herbicidal rating CHEAL ([2]; rate 0.2500 kg/ha): 9.0 | Preemergence herbicidal rating TRZAWR ([3]; rate 0.0156 kg/ha): 0.0 | Preemergence herbicidal rating TRZAWR ([3]; rate 0.0313 kg/ha): 0.0 | Preemergence herbicidal rating TRZAWR ([3]; rate 0.0625 kg/ha): 0.0 | Preemergence herbicidal rating TRZAWR ([3]; rate 0.1250 kg/ha): 0.0 | Preemergence herbicidal rating TRZAWR ([3]; rate 0.2500 kg/ha): 0.0 | Preemergence herbicidal rating ZEAMX (ZEAMX (Corn, Field) [4]; rate 0.0156 kg/ha): 0.0 | Preemergence herbicidal rating ZEAMX (ZEAMX (Corn, Field) [4]; rate 0.0313 kg/ha): 0.0 | Preemergence herbicidal rating ZEAMX (ZEAMX (Corn, Field) [4]; rate 0.0625 kg/ha): 0.0 | Preemergence herbicidal rating ZEAMX (ZEAMX (Corn, Field) [4]; rate 0.1250 kg/ha): 0.0 | Preemergence herbicidal rating ZEAMX (ZEAMX (Corn, Field) [4]; rate 0.2500 kg/ha): 0.0 | Herbicidal rating ZEAMX (ZEAMX (Corn, Field) [5]; rate 0.0156 kg/ha): 4.0 | Herbicidal rating ZEAMX (ZEAMX (Corn, Field) [5]; rate 0.0313 kg/ha): 4.0 | Herbicidal rating ZEAMX (ZEAMX (Corn, Field) [5]; rate 0.0625 kg/ha): 4.5 | Herbicidal rating SETVI (SETVI (Foxtail, Green); rate 0.0156 kg/ha): 3.0 | Herbicidal rating SETVI (SETVI (Foxtail, Green); rate 0.0313 kg/ha): 3.0 | Herbicidal rating SETVI (SETVI (Foxtail, Green); rate 0.0625 kg/ha): 6.0 | Herbicidal rating ECHCG (ECHCG (Barnyardgrass) [6]; rate 0.0156 kg/ha): 2.0 | Herbicidal rating ECHCG (ECHCG (Barnyardgrass) [6]; rate 0.0313 kg/ha): 3.0 | Herbicidal rating ECHCG (ECHCG (Barnyardgrass) [6]; rate 0.0625 kg/ha): 4.0 | Preemergence herbicidal rating GLXMAW ([7]; rate 0.0156 kg/ha): 0.0 | Preemergence herbicidal rating GLXMAW ([7]; rate 0.0313 kg/ha): 0.0 | Preemergence herbicidal rating GLXMAW ([7]; rate 0.0625 kg/ha): 0.0 | Preemergence herbicidal rating GLXMAW ([7]; rate 0.1250 kg/ha): 0.0 | Preemergence herbicidal rating GLXMAW ([7]; rate 0.2500 kg/ha): 0.0 | Herbicidal rating IPOHE ([8]; rate 0.0156 kg/ha): 9.0 | Herbicidal rating IPOHE ([8]; rate 0.0313 kg/ha): 9.0 | Herbicidal rating IPOHE ([8]; rate 0.0625 kg/ha): 9.0 | Herbicidal rating CHEAL ([9]; rate 0.0156 kg/ha): 7.0 | Herbicidal rating CHEAL ([9]; rate 0.0313 kg/ha): 9.0 | Herbicidal rating CHEAL ([9]; rate 0.0625 kg/ha): 9.0 | Herbicidal rating ABUTH (ABUTH (Velvetleaf) [10]; rate 0.0156 kg/ha): 9.0 | Herbicidal rating ABUTH (ABUTH (Velvetleaf) [10]; rate 0.0313 kg/ha): 9.0 | Herbicidal rating ABUTH (ABUTH (Velvetleaf) [10]; rate 0.0625 kg/ha): 9.0 | Preemergence herbicidal rating ABUTH (ABUTH (Velvetleaf) [11]; rate 0.0156 kg/ha): 0.0 | Preemergence herbicidal rating ABUTH (ABUTH (Velvetleaf) [11]; rate 0.0313 kg/ha): 0.0 | Preemergence herbicidal rating ABUTH (ABUTH (Velvetleaf) [11]; rate 0.0625 kg/ha): 0.0 | Preemergence herbicidal rating ABUTH (ABUTH (Velvetleaf) [11]; rate 0.1250 kg/ha): 9.0 | Preemergence herbicidal rating ABUTH (ABUTH (Velvetleaf) [11]; rate 0.2500 kg/ha): 9.0 | Preemergence herbicidal rating ECHCG (ECHCG (Barnyardgrass) [12]; rate 0.0156 kg/ha): 0.0 | Preemergence herbicidal rating ECHCG (ECHCG (Barnyardgrass) [12]; rate 0.0313 kg/ha): 0.0 | Preemergence herbicidal rating ECHCG (ECHCG (Barnyardgrass) [12]; rate 0.0625 kg/ha): 0.0 | Preemergence herbicidal rating ECHCG (ECHCG (Barnyardgrass) [12]; rate 0.1250 kg/ha): 0.0 | Preemergence herbicidal rating ECHCG (ECHCG (Barnyardgrass) [12]; rate 0.2500 kg/ha): 1.0
